In brackets after ≈: the same amount, converted by molar mass. Like-named read-outs stand apart in the source and are kept apart here.
Experiments:
[1] = test system: S. aureus ITS-1199B (overexpression of the efflux pump NorA); type: cell-based, Staphylococcus aureus; settings: resistant strain R NorA; for MIC (μg/ml) of compound in the presence of ciprofloxacin at 4 μg/ml (c/4): ciprofloxacin 4 μg/ml (c/4); for MIC (μg/ml) of compound in the presence of ciprofloxacin at 8 μg/ml (c/2): ciprofloxacin 8 μg/ml (c/2)
Experimental: (§1) The two strains used are Staphylococcus aureus (ATCC 25923, sensitive Gram-positive strain) denoted S, and S. aureus ITS-1199 (without efflux), as well as its derivative S. aureus ITS-1199B (Kaatz, G. W., Seo, S. M., Antimicrob. Agents Chemother., 1995, 39, 2650-2655) having a resistance to the fluoroquinolones due to the overexpression of the efflux pump NorA and denoted R NorA. The bacteria are cultured at 37° C. in Mueller-Hinton (MH, Bio Rad) or Luria-Bertani (LB, Difco) Medium.
The experiences are carried out as above, but using the resistant strain, and looking at the effect of the mixture of the molecule to be tested and the antibiotic to which the bacterium is resistant. Thus, the method of a series of dilutions in Mueller-Hinton medium is used, also starting from a molecule concentration of 100 or 128 μg/ml.

[2] = test system: KB (human mouth carcinoma); experiment: In vitro cytotoxicity on KB cells; type: cell-based; settings: concentration of 10^−5 M
Experimental: (§2) The in vitro cytotoxicity results, measured at a concentration of 10^−5 M, are described below. The cytotoxicity was measured on 5 cell lines—KB (human mouth carcinoma), MCF7 (breast carcinoma) and MCF7R (resistant strain), Vero (monkey kidney) and HCT116 (human colon tumour).

[3] = In vitro cytotoxicity on MCF7 cells; type: cell-based; settings: human, MCF7 cells (breast carcinoma); concentration of 10^−5 M; read-out: Average cytotoxicity (% inhibition), MCF7 cells
Experimental: as §2

[4] = in vitro; type: cell-based; settings: human
Experimental: as §2

[5] = In vitro cytotoxicity on Vero cells; type: cell-based; settings: monkey, concentration of 10^−5 M, read-out: Average cytotoxicity (% inhibition), Vero cells
Experimental: as §2

[6] = In vitro cytotoxicity on HCT116 cells; type: cell-based; settings: human, concentration of 10^−5 M, read-out: Average cytotoxicity (% inhibition), HCT116 cells
Experimental: as §2

[7] = test system: Staphylococcus aureus (ATCC 25923, sensitive Gram-positive strain); experiment: Determination of the antibacterial activity: MIC in liquid Mueller-Hinton medium (intrinsic antibacterial activity); type: cell-based; settings: read-out: MIC / Antibacterial Activity (AA)
Experimental: as §1
The experiments described hereafter are carried out following the recommendations of the Comité de l'Antibiogramme de la Société Française de Microbiologic (http://www.sfm.asso.fr/nouv/general.php See also Courvalin, P., Goldstein, F., Philippon, A., Sirot J. L'antibiogramme, 1985, M.P.C.-Videom editor). The antibacterial activity of the molecules was determined in liquid medium using a Biomek 2000 robot (Beckman) and micro-titration plates. The final volume in each well is 200 μl. A maximum volume of 5 μl of a solution of the molecule in DMSO is added to each well containing 10^6 CFU/ml (Colony Forming Units) of bacteria in MH medium. The final concentration of the molecule to be tested must be 100 or 128 μg/ml. […] Ampicillin is used as a positive control and the same volume of DMSO as that used to introduce the molecule (generally 2 to 5 μl) as a negative control.
The experiments are repeated three times.

[8] = HCT116 cells (human colon tumour)
[9] = ATCC25923, compound alone, lowest concentration allowing no growth after 18 hours at 37° C., 10^6 CFU/ml

SMILES | MIC (μg/ml) of compound in the presence of ciprofloxacin at 4 μg/ml (c/4) [1] | Average cytotoxicity (% inhibition), KB cells [2] [%] | cytotoxicity ([5]; Vero cells (monkey kidney)) [%] | MIC ([7]; ATCC25923, 18 h) [µg/mL] | other results
CC(c1c[nH]c2ccccc12)N(O)Cc1ccccc1 (stereo not shown) [(37)] | >8 µg/mL | – | – | – | MIC (μg/ml) of compound in the presence of ciprofloxacin at 8 μg/ml (c/2) [1]: >8 µg/mL
COc1ccc(CN(O)C(CNC(=O)OC(C)(C)C)c2c[nH]c3ccc(Br)cc23)c(OC)c1 (stereo not shown) [Compound (8)] | 8 µg/mL | – | – | – | MIC (μg/ml) of compound in the presence of ciprofloxacin at 8 μg/ml (c/2) [1]: 8 µg/mL
CC(C)(C)OC(=O)NCC(c1c[nH]c2ccccc12)N(O)Cc1ccccc1 (stereo not shown) [Compound (6)] | 4 µg/mL | 33.7 | 27 | – | MIC (μg/ml) of compound in the presence of ciprofloxacin at 8 μg/ml (c/2) [1]: 2 µg/mL; cytotoxicity [3]: 13.1%; cytotoxicity [4]: 16%; cytotoxicity [6, 8]: 29%
CC(C)CC(c1c[nH]c2ccccc12)N(O)C(=O)OC(C)(C)C (stereo not shown) [Compound (47)] | 32 µg/mL | – | – | – | MIC [7, 9]: 64 µg/mL (≈ 201 µM)
COc1cc(CN(O)C(CNC(=O)OC(C)(C)C)c2c[nH]c3ccc(Br)cc23)cc(OC)c1 (stereo not shown) [(10)] | 8 µg/mL | – | – | – | –
COc1ccc2c(C(CNC(=O)OC(C)(C)C)N(O)Cc3ccccc3)c[nH]c2c1 (stereo not shown) [Compound (50), 1-[N-benzyl-N-(hydroxy)amino]-2-[N′-(tert-butoxycarbonyl)amino]-1-(6′-methoxyindol-3′-yl)ethane] | – | – | 42 | – | –
CC(C)(C)OC(=O)NCC(N)c1c[nH]c2cc(Br)ccc12 (stereo not shown) [(26)] | – | – | – | 25 (≈ 70.6 µM) | –
NCC(N)c1c[nH]c2cc(Br)ccc12 (stereo not shown) [(28)] | – | – | – | – | MIC [7, 9]: 25 µg/mL (≈ 98.4 µM)
CC(C)(C)OC(=O)NCC(NO)c1c[nH]c2ccc(Br)cc12 (stereo not shown) [(21), 1-N-(hydroxy)amino-2-[N′-(tert-butoxycarbonyl)amino]-1-(5′-bromo-3′-indolyl) ethane] | – | 0 | 11 | 50 (≈ 135 µM) | cytotoxicity [6, 8]: 28%
CC(C)(C)OC(=O)NCC(c1c[nH]c2ccc(Br)cc12)[N+]([O-])=Cc1ccccc1 (stereo not shown) [(20 bis)] | 1 µg/mL | – | – | – | MIC (μg/ml) of compound in the presence of ciprofloxacin at 8 μg/ml (c/2) [1]: 1 µg/mL
COc1ccc(CN(O)C(C)c2c[nH]c3ccc(Br)cc23)cc1 (stereo not shown) [Compound (3)] | – | – | – | 100 (≈ 266 µM) | –
CC(C)(C)OC(=O)NCC(NO)c1c[nH]c2cc(Br)ccc12 (stereo not shown) [(22)] | – | 0 | 22 | 50 (≈ 135 µM) | cytotoxicity [6, 8]: 37%
CC(c1c[nH]c2cc(Br)ccc12)N(O)Cc1ccccc1 (stereo not shown) [Compound (2)] | – | – | – | 100 (≈ 290 µM) | –
CC(C)(C)OC(=O)NCC(NO)c1c[nH]c2ccccc12 (stereo not shown) [(46), 1-N-(hydroxy)amino-2-[N′-(tert-butoxycarbonyl)amino]-1-(indol-3′-yl)ethane] | – | 31 | 0 | – | cytotoxicity [6, 8]: 39%
CC(C)(C)OC(=O)NCC(c1c[nH]c2ccc(Br)cc12)N(O)C(=O)OC(C)(C)C (stereo not shown) [Compound (13), 1-[N-(tert-butoxycarbonyl)-N-(hydroxy)amino]-2-[N-(tert-butoxycarbonyl)]-1-(5′-bromo-3′-indolyl)ethane] | – | – | – | 50 (≈ 106 µM) | –
CC(C)(C)OC(=O)NCC(c1c[nH]c2ccccc12)N(O)C(=O)OC(C)(C)C (stereo not shown) [Compound (11)] | – | 14 | 15 | – | cytotoxicity [6, 8]: 22%
CC(C)(C)OC(=O)NCC(N)c1c[nH]c2ccc(Br)cc12 (stereo not shown) [(25), 1-amino-2-[N′-(tert-butoxycarbonyl)amino]-1-(5′-bromo-3′-indolyl) ethane] | – | – | – | 25 (≈ 70.6 µM) | –
CC(C)(C)OC(=O)NCC(c1c[nH]c2ccc(Br)cc12)/[N+]([O-])=C/c1ccccc1 (stereo not shown) [Compound (20 bis), N-(benzylidene)-2-[N′-(tert-butoxycarbonyl)amino]-1-(5′-bromo-3′-indolyl) ethanamine N-oxide] | c/2 = 1 c/4 = 1 μg/ml | 38.3 | – | – | MIC (μg/ml) of compound in the presence of ciprofloxacin at 8 μg/ml (c/2) [1]: c/2 = 1 c/4 = 1 μg/ml; cytotoxicity [3]: 23.3%; cytotoxicity [4]: 38.1%
Cl.Cl.NCC(NO)c1c[nH]c2cc(Br)ccc12 (stereo not shown) [(33)] | – | 14 | – | – | MIC [7, 9]: 6 µg/mL; cytotoxicity [5]: 31%; cytotoxicity [6]: 37%

From patent publication US8343964B2, “Indolic derivatives, their preparation processes and their uses in particular as antibacterials” (Universite Joseph Fourier, priority 2007, dated 2013)
